Data on 3 compounds can be found in patent US20190381017A1, “Compositions Comprising Serdexmethylphenidate Conjugates And Methods Of Use Thereof” (KemPharm, Inc., priority 2018, published 2019).

Series [1] has as its system recreational stimulant users. Put plainly: Treatment-emergent adverse events, intravenous study (Example 2). As to the method:
A study was conducted in humans to assess the intravenous abuse potential of serdexmethylphenidate relative to unconjugated d-methylphenidate and placebo in recreational stimulant abusers. This was a Phase 1, randomized, double-blind study in which serdexmethylphenidate and d-methylphenidate were administered intravenously in recreational stimulant users with a history of non-oral abuse. In Part A of the study, subjects (Cohort 1) participated in a dose-escalation phase to determine the optimal dose of intravenous d-methylphenidate based on tolerability and abuse-related pharmacodynamic assessments. […] The doses of serdexmethylphenidate and d-methylphenidate are equivalent with respect to molar amount of d-methylphenidate. FDA-recommended abuse potential measures and blood samples were collected at different times after dosing. Safety assessments were performed throughout the study.

The subject of series [2] is recreational stimulant users. Put plainly: Intravenous abuse potential, VAS pharmacodynamic scores (Example 2). Type of series: in vivo, human. The following applies: SDX Cl 30 mg, d-MPH HCl 15 mg, bipolar VAS. From the text: “Drug liking” score, used herein, is the score used to assess the degree that a human participant likes a drug effect at the time the question is being asked (that is, at the moment). It is scored using a 0 to 100 point bipolar visual analogue scale (VAS) anchored in the center with a neutral anchor of “neither like nor dislike” (score of 50), on the left with “strong disliking” (score of 0) and on the right with “strong liking” (score of 100).
“Euphoria” or “Feeling High” score, used herein, is the term to describe the score used to assess the degree that a human participant is high at the time the question is being asked (that is, at the moment). It is scored using a 0 to 100 point unipolar visual analogue scale (VAS) anchored on the left with “Not at All” (score of 0) and on the right with “Extremely” (score of 100).
“Take Drug Again” score, used herein, is the term to describe the score used to assess the degree that a human participant wants to take the drug again, if given the opportunity, based on his/her opinion now, i.e., at the time the question is being asked. It is scored using a 0 to 100 point unipolar visual analogue scale (VAS) anchored on the left with “Definitely Would Not” (score of 0) and on the right with “Definitely Would” (score of 100).
“Overall Drug Liking” score, used herein, is the term to describe the score used to assess the human subject's global perception of drug liking (i.e., the subjective effects over the whole course of the drug experience including any carryover effects). Subjects respond to the statement “Overall, my liking for this drug is.” The question is scored using a 0-100 point bipolar VAS anchored on the left with “Strong Disliking” (score of 0); “Neither Like nor Dislike” (score of 50) in the middle, and anchored on the right with “Strong Liking” (score of 100). This scale has the advantage of the human subject being relatively less affected or unaffected by acute study drug effects (if any) by the time of the assessment.
“Good Effects” score, used herein, is the term to describe the score used to assess the degree that a human participant is feeling good drug effects at the time the question is being asked (that is, at the moment). Subjects respond to the statement “At this moment, I can feel good drug effects.” It is scored using a 0 to 100 point unipolar visual analogue scale (VAS) anchored on the left with “Not at All” (score of 0) and on the right with “Extremely” (score of 100).
Safety assessments were performed throughout the study.

Series [3] concerns healthy, nondependent, recreational stimulant users. Briefly: Oral abuse potential, VAS pharmacodynamic scores (Example 4). To be noted: phentermine HCl 60 mg.
Setting [4] is: SDX Cl 120 mg, Focalin XR 80 mg.
The mark [5] stands for this setting: SDX Cl 120 mg, Focalin XR 80 mg, bipolar VAS.
Where [6] appears, read: SDX Cl 120 mg, Focalin XR 80 mg, unipolar VAS.

The structures appear in SMILES notation. Structures can show the parent of a compound that is named as a salt. Marks after values point to notes of the source that are not given here.

`COC(=O)[C@H](c1ccccc1)[C@H]1CCCCN1` [d-methylphenidate, methyl (R)-2-phenyl-2-((R)-piperidin-2-yl)acetate, reference compound]: in series [1], the “typical stimulant-related Adverse Events (euphoric mood, hypervigilance, increased heart rate), frequency vs serdexmethylphenidate” value was “more common”. In series [2], the “Drug Liking Emax (mean)” value was determined as 84.3.

In the case of `CC(C)(N)Cc1ccccc1` [phentermine hydrochloride, reference compound], in series [3] (Focalin XR 80 mg), the “Mean difference Any Effects Emax vs SDX Cl 120 mg” value was 37.4, the “Mean difference Any Effects Emax vs SDX Cl 240 mg” value turned out to be 28.0, the “Mean difference Bad Effects Emax vs SDX Cl 120 mg” value stood at 11.9 and the “Mean difference Bad Effects Emax vs SDX Cl 240 mg” value was found to be 4.6. In addition, in series [3] (Focalin XR 80 mg), the “Mean difference Drug Liking Emax vs SDX Cl 120 mg” value came to 15.5, the “Mean difference Drug Liking Emax vs SDX Cl 240 mg” value was found to be 14.0, the “Mean difference Feeling Alert/Drowsy Emax vs SDX Cl 120 mg” value was found to be 15.7 and the “Mean difference Feeling Alert/Drowsy Emax vs SDX Cl 240 mg” value amounted to 12.2. Besides, in series [3] (Focalin XR 80 mg), the “Mean difference Feeling High Emax vs SDX Cl 120 mg” value is listed as 36.0, the “Mean difference Feeling High Emax vs SDX Cl 240 mg” value was 27.7, the “Mean difference Good Effects Emax vs SDX Cl 120 mg” value was 35.5 and the “Mean difference Good Effects Emax vs SDX Cl 240 mg” value worked out at 30.2. Also, in series [3] (Focalin XR 80 mg), the “Mean difference Overall Drug Liking Emax vs SDX Cl 120 mg” value came to 14.9, the “Mean difference Overall Drug Liking Emax vs SDX Cl 240 mg” value is 15.3, the “Mean difference Take Drug Again Emax vs SDX Cl 120 mg” value is 14.9 and the “Mean difference Take Drug Again Emax vs SDX Cl 240 mg” value is reported as 15.4. In series [3] (setting [4]), the “Mean difference Any Effects Emax vs placebo” value is 48.5, the “Mean difference Drug Liking Emax vs placebo” value was 22.3, the “Mean difference Feeling Alert/Drowsy Emax vs placebo” value is 23.5 and the “Mean difference Feeling High Emax vs placebo” value worked out at 46.4. Moreover, in series [3] (setting [4]), the “Mean difference Good Effects Emax vs placebo” value is recorded as 47.6, the “Mean difference Overall Drug Liking Emax vs placebo” value is given as 18.6 and the “Mean difference Take Drug Again Emax vs placebo” value was determined as 17.1. Moreover, in series [3] (setting [5]), the “Drug Liking Emax (mean)” value amounted to 80.2, the “Drug Liking Emax (median)” value turned out to be 84.0, the “Feeling Alert/Drowsy Emax (mean)” value is recorded as 81.4 and the “Feeling Alert/Drowsy Emax (median)” value is 84.0. Besides, in series [3] (setting [5]), the “Overall Drug Liking Emax (mean)” value came to 73.4, the “Overall Drug Liking Emax (median)” value is given as 77.0, the “Take Drug Again Emax (mean)” value was determined as 72.3 and the “Take Drug Again Emax (median)” value is 75.0. Besides, in series [3] (setting [6]), the “Any Effects Emax (mean)” value is 69.2, the “Any Effects Emax (median)” value is 74.0, the “Bad Effects Emax (mean)” value came to 17.9 and the “Bad Effects Emax (median)” value was found to be 7.0. In addition, in series [3] (setting [6]), the “Feeling High Emax (mean)” value worked out at 65.3, the “Feeling High Emax (median)” value was determined as 76.0, the “Good Effects Emax (mean)” value came out at 66.2 and the “Good Effects Emax (median)” value was 75.0. Further, in series [3], the “Median difference Bad Effects Emax vs placebo” value is recorded as 8.0^c.

Consider `COC(=O)[C@H](c1ccccc1)[C@H]1CCCCN1C(=O)OC[n+]1cccc(C(=O)N[C@@H](CO)C(=O)O)c1` [serdexmethylphenidate], for which the “Drug Liking Emax (mean)” value in series [2] was found to be 56.6.
